Laboratory results from ChEMBL document CHEMBL4613223, “Structure-based design of guanosine analogue inhibitors targeting GTP cyclohydrolase IB towards a new class of antibiotics” (Bioorg Med Chem Lett, 2020).

Assays:
[1] = Inhibition of recombinant full-length Neisseria gonorrhoeae N-terminal His6-tagged GCYH1B expressed in Escherichia coli BL21 (DE3) using GTP as substrate incubated for 50 to 60 mins by fluorescence based assay
[2] = Inhibition of Thermus thermophilus HB8 GCYH1A expressed in Escherichia coli BL21 (DE3) using GTP as substrate incubated for 60 to 180 mins by spectrofluorimetric analysis
[3] = Inhibition of full-length human GCYH1A expressed in Escherichia coli using GTP as substrate incubated for 30 mins by fluorescence based assay
[4] = Inhibition of Neisseria gonorrhoeae GCYH1B

Structure (SMILES)	Ki [1] [µM]	Ki [2] [µM]	IC50 [3] [µM]	IC50 [4] [µM]
Nc1nc2c([nH]c(=O)n2[C@@H]2O[C@H](CO[P@@](=O)(O)O[P@@](=O)(O)OP(=O)(O)O)[C@@H](O)[C@H]2O)c(=O)[nH]1	0.15	0.0054	–	–
Nc1nc(OC[C@@H](O)CO)c2[nH]c(=O)n([C@@H]3O[C@H](CO)[C@@H](O)[C@H]3O)c2n1	–	–	372	164
COc1nc2c(=O)[nH]c(N)nc2n1[C@@H]1O[C@H](CO)[C@@H](O)[C@H]1O	–	–	–	372
Nc1nc(OCCO)c2[nH]c(=O)n([C@@H]3O[C@H](CO)[C@@H](O)[C@H]3O)c2n1	–	–	221	413
Nc1nc(OC[C@H](O)CO)c2[nH]c(=O)n([C@@H]3O[C@H](CO)[C@@H](O)[C@H]3O)c2n1	–	–	409	134
